We go through seven compounds from patent publication US20080027044A1, “Prodrug antibiotic screens” (priority 2006, published 2008).

The structures appear in SMILES notation. ≈ marks a conversion by molar mass, not a printed value.

For series [1] the following is noted: Schulz et al. (1997); cited from earlier work.
The next series relates to P. aeruginosa. In words: Killing of logarithmic, stationary and biofilm cultures by bactericidal antimicrobials (colony count). Conditions: in words. Type of series: cell-based. The protocol:
Persister cells in planktonic and biofilm populations are characterized for their antibiotic sensitivity in this example. Several bactericidal antimicrobials were chosen to test the resistance of P. aeruginosa to killing—ofloxacin, a fluoroquinolone; tobramycin, an aminoglycoside; carbenicillin, a β-lactam; and peracetic acid, a disinfectant oxidant (Spoering et al. (2001) J. Bacteriol. 183:6746-6751). Biofilms were grown essentially by the method of Ceri (Ceri et al. (1999) J. Clin. Microbiol. 37:1771-1776) and as described in Brooun et al. (2000) Antimicrob. Agents Chemother. 44:640-646. The device used for biofilm formation is a platform carrying 96 polystyrene pegs that fit in a microtiter plate. Preformed biofilms were incubated in the presence of an antimicrobial agent, and survival was measured after disrupting the biofilms by colony count.
Carbenicillin is a bactericidal antibiotic that, similarly to most β-lactams, only kills rapidly growing cells (Tuomanen et al. (1986) Scand. J. Gastroenterol. Suppl:10-14). Logarithmic state, stationary and biofilm cultures were challenged with carbenicillin.
Unlike carbenicillin, ofloxacin can kill non-growing cells (Brooun et al. (2000) Antimicrob. Agents Chemother. 44:640-646). […] After a 6 hours incubation time with the antibiotic, viability was determined by colony count. […]

Series [2] deals with E. coli K12 ΔtolC overexpressing activating enzyme. In words: MIC, broth microdilution, tolC deletion strains (MDR efflux test). Format: cell-based. From the text:
Prodrugs are activated by activating enzymes into reactive molecules that bind to their targets, creating an irreversible sink. This may lead to insensitivity of the overall process to MDR efflux. In order to test this possibility, an E. coli K12 with a deletion in tolC coding for the outer membrane porin that is a component of the transenvelope MDRs was utilized (Li, X. Z et al. (2004) Drugs 64:159-204). This strain is highly sensitive to antibiotics (Tegos et al. (2002) Antimicrob. Agents Chemother. 46:3133-3141). […] The substrate specificity of AcrAB is remarkably broad, and includes essentially all small molecular weight amphipathic compounds. The AcrAB substrates include anions (SDS, fatty acids, bile acids), neutral compounds (macrolides, chloramphenicol, tetracyclines) and cations or compounds that can form cations (acridine, quaternary compound antiseptics, fluoroquinolones). AcrAB can extrude the best natural broad spectrum antibiotics that evolved for good penetration —chloramphenicol and tetracycline; and extrude the best synthetic broad-spectrums, the fluoroquinolones. Indeed, amphipathic antimicrobials that are not an AcrAB substrate are not known.
(§1) Cells were tested in a standard broth microdilution assay, inoculating 10^5 cells per well of a microtiter plate in LB broth. Overexpression and deletion strains were compared to the appropriate isogenic wild type. IPTG was added at 1 mM to growth medium. Experiments involving nfnB and nfsA strains were performed under anaerobic conditions.
(In general: In broth dilution the organism is exposed to a series of concentrations in liquid medium.)

The test system of series [3] is E. coli K12 overexpressing activating enzyme. In words: MIC, broth microdilution, strains overexpressing activating enzyme. Type of series: cell-based. Conditions: for MIC: 1 mM IPTG; for susceptibility of strains overexpressing the corresponding activating enzymes: in words.
Description: Next, the hits that verify and have reduced activity compared to wild type or no activity against strains deleted in a known or putative enzyme are validated. The rationale is to test the hit against a strain overexpressing the putative activating enzyme. Strains overexpressing activating enzymes have considerably higher susceptibility to prodrugs. It is important to note that conventional antibiotics that inhibit specific targets have increased activity against strains with diminished expression of the target, and decreased activity if the target is overproduced (Schmid, M. B. (2001) New targets and strategies for identification of novel classes of antibiotics. In Antibiotic Development and Resistance. Hughes, D. and Andersson, D. I. (eds). New York: Taylor and Francis, pp. 197-208; Sun, D.e.a. (2001) In 41st Interscience Conference on Antimicrobial Agents and Chemotherapy Chicago: ASM, pp. 77). A prodrug hit has higher activity against a strain overexpressing an activating enzyme, and lower activity against a strain lacking/diminished in an activating enzyme. This behavior of a prodrug hit is the exact opposite from what one expects from a specific antibiotic, and will provide for an excellent preliminary validation of prodrugs. This validation is facilitated by the availability of the ASKA library of E. coli strains overexpressing all known ORFs. The University of Nagoya freely distributes this resource (Saka et al. (2005) DNA Res. 12:63-68). The library contains 4,382 individual E. coli K12 W3110 clones, each carrying a single ORF cloned in an expression vector pCA24N under a pT5/lac promoter. The N-termini carry a his-tag linked to the ORF by a 7 amino acid spacer. The vector carries a CAM resistance marker and a lacl^q gene for a tight control of IPTG-inducible expression.
(§2) The ASKA strains of interest are validated for functional expression of the enzyme. If the protein is not expressed from a given expression vector the ORF will be recloned. A strain overexpressing the activating enzyme from the ASKA library is then tested with the hit compound. If the hit has greater activity against this overexpressing strain as compared to the wild type, this indicates a prodrug. The test is performed in a standard broth microdilution assay for MIC determination. Hits with the lowest wild type MIC are then focused on.
as §1

The test system of series [4] is E. coli K12 Δactivating enzyme. In words: MIC, broth microdilution, strains deleted in activating enzyme. Conditions: anaerobic conditions. Type of series: cell-based. The procedure:
as §1

Another series has as its system E. coli K12 wt. In words: MIC, standard broth microdilution assay, wild type. Type of series: cell-based. Conditions: in words; all strains tested. The protocol:
as §2, §1

[5] abbreviates: E. coli K12 ΔtolC nfnB+ (overexpressing), anaerobic conditions.
Where [6] appears, read: E. coli K12 ΔtolC nfsA+ (overexpressing), anaerobic conditions.
Where [7] appears, read: E. coli K12 nfnB+ (overexpressing), anaerobic conditions.
The mark [8] stands for this setting: E. coli K12 nfsA+ (overexpressing), anaerobic conditions.

For the compound `CC1COc2c(N3CCN(C)CC3)c(F)cc3c(=O)c(C(=O)O)cn1c23` (stereo not drawn) [ofloxacin], in series [1], the clinically achievable concentration is 5 µg/mL.

`NC[C@H]1O[C@H](O[C@H]2[C@H](O)[C@@H](O[C@H]3O[C@H](CO)[C@@H](O)[C@H](N)[C@H]3O)[C@H](N)C[C@@H]2N)[C@H](N)C[C@@H]1O` [Tobramycin, tobramycin]: the “killing of logarithmic cells” value with P. aeruginosa (logarithmic cells) is “no logarithmic persisters were detected”. In series [1], the clinically achievable concentration was 10 µg/mL.

For orientation: MIC means the smallest concentration in the dilution series that meets the test's criterion for growth inhibition. A low value points to inhibition by little substance. As to `NC(=O)c1cc(N2CC2)c([N+](=O)[O-])cc1[N+](=O)[O-]` [Dinitroaziridinylbenzamide (CB1954), Dinitroaziridinylbenzamide], the minimum inhibitory concentration (MIC) is 3.3 µg/mL (≈ 13.1 µM) in series [2] (setting [5]), 6.3 µg/mL (≈ 25 µM) in series [2] (setting [6]), 3.3 µg/mL (≈ 13.1 µM) in series [3] (setting [7]) and 6.3 µg/mL (≈ 25 µM) in series [3] (setting [8]). In addition, the “susceptibility of strains overexpressing the corresponding activating enzymes” value in series [3] is “significantly increased susceptibilities”.

Consider `NC(=O)c1cc([N+](=O)[O-])cc([N+](=O)[O-])c1` [3,5-Dinitrobenzamide], for which the MIC in series [2] (setting [5]) was 15.6 µg/mL (≈ 73.9 µM); in series [2] (setting [6]), 7.8 µg/mL (≈ 36.9 µM); in series [4] (E. coli K12 nfnB− (deleted)), greater than 500 µg/mL; in series [4] (E. coli K12 nfsA− (deleted)), greater than 500 µg/mL; in series [3] (setting [7]), 15.6 µg/mL (≈ 73.9 µM); in series [3] (setting [8]), 7.8 µg/mL (≈ 36.9 µM). The “susceptibility of strains overexpressing the corresponding activating enzymes” value in series [3] is on record as “significantly increased susceptibilities”.

With `CC(=O)OO` [Peracetic acid, peracetic acid], the “killing of logarithmic, stationary and biofilm cultures” value with P. aeruginosa (all three cultures) is listed as “all cultures were sterilized”.

`Nc1nc(O)ncc1F` [5-fluorocytosine, 5-Fluorocytosine]: the “activity against any strains tested” value in the series with E. coli K12 wt is recorded as “little activity”.

With `CC[C@H]1OC(=O)[C@H](C)[C@@H](O[C@H]2C[C@@](C)(OC)[C@@H](O)[C@H](C)O2)[C@H](C)[C@@H](O[C@@H]2O[C@H](C)C[C@H](N(C)C)[C@H]2O)[C@](C)(O)C[C@@H](C)C(=O)[C@H](C)[C@@H](O)[C@]1(C)O` [Erythromycin], the MIC in series [2] (E. coli K12 ΔtolC codA+ (overexpressing)) came out at 1.56 µg/mL (≈ 2.13 µM); in series [2] (E. coli K12 ΔtolC deoD+ (overexpressing)) it was 1.56 µg/mL (≈ 2.13 µM); in series [2] (setting [5]) it was 1.56 µg/mL (≈ 2.13 µM); in series [2] (setting [6]) it was 1.56 µg/mL (≈ 2.13 µM); in series [3] (E. coli K12 codA+ (overexpressing)), 200 µg/mL (≈ 273 µM); in series [3] (E. coli K12 deoD+ (overexpressing)) it was 200 µg/mL (≈ 273 µM). In addition, the MIC in series [3] (setting [8]) was 200 µg/mL (≈ 273 µM).
